Laboratory results reported in patent US11161831B2, “Methods and compositions for treatment of muscle wasting, muscle weakness, and/or cachexia” (Baylor College of Medicine, priority 2013, dated 2021).

Tests used:
[1] = system: CD2F1 mice bearing C26 tumor; assay: Cancer cachexia in CD2F1 mice bearing C26 tumor; type: in vivo, mouse
Procedure: FIGS. 39A-39G provides that blocking Stat3 activation with C188-9, a Stat3 inhibitor, suppresses cancer cachexia. CD2F1 mice bearing C26 tumor for 5 days were treated with C188-9 twice daily for 14 days. Results from these mice were compared to those of CD2F1 mice bearing tumor and treated with the diluent, 5% dextose in water (D5W). CD2F1 mice without C26 tumors served as the control mice. There were 12 mice in each group. FIG. 39A. representative western blots of different proteins (upper panel) were quantified (lower panel). Results shown are: FIG. 39B. body weights; FIG. 39C. muscle weights; FIG. 39D. the distribution of myofiber sizes of in the 3 groups of mice; FIG. 39E. muscle grip strength; and FIGS. 39F & 39G are measured rates of protein synthesis and degradation. Results are mean±SEM.
FIG. 41A. C2Cl2 myotubes were treated with conditioned media from C26 cells with or without C188-9 for 72 hours. A representative western blot showing a decrease in the myosin heavy chain is blocked by C188-9. FIG. 41B. C2Cl2 myotubes were treated with conditioned media from C26 cells with or without C188-9 for 24 hours. Levels of mRNAs of MAFbx/Atrogin-1 and MuRF-1 are shown. FIGS. 41C & 41D. CD2F1 mice bearing C26 tumors were treated with C188-9 for 2 weeks. […] FIG. 41E. […] Results are mean±SEM.
All animal experiments and procedures were approved by the Baylor College of Medicine Institutional Animal Care and Use Committee (IACUC). CD2F1 mice (Charles River; Houston, Tex.) were studied at 8-10 weeks of age following subcutaneous injection of C26 tumor cells (5×10^6 cells in 500 μL medium) in the right flank. After 5 days, tumor bearing mice were treated with daily injections of the diluent, D5W (control), or C188-9 (12.5 mg Stat3 inhibitor/kg body weight). Control and cancer bearing mice were pair-fed for 14 days and growth was measured. For pair-feeding, the amount eaten by the cancer-bearing mouse was fed to the paired, control mouse the following day.
As described Soleus and EDL muscles were rapidly removed from mice (Zhang et al., 2011; Clark and Mitch, 1983). The muscles were maintained at resting length during incubation in Krebs-Henseleit bicarbonate buffer with 10 mM glucose and L-[U-^14C]phenylalanine. Protein synthesis was measured as the rate of incorporation of L-[U-^14C]phenylalanine in muscle protein while protein degradation was assessed as the release of tyrosine from muscle proteins undergoing degradation. Phenylalanine and tyrosine were studied because they are neither synthesized nor degraded by muscle and they rapidly equilibrate with the intracellular free amino acid pool in muscle.
Proteasomes were partially purified by differential centrifugation; equal amounts of protein from the preparations of proteasomes were used to measure proteasome activity as the release of 7-amino-4-methylcoumarin (AMC) from the fluorogenic peptide substrate LLVY-AMC (N-Suc-Leu-Leu-Val-Tyr-AMC). AMC fluorescence was measured using 380 nm excitation and 460 nm emission wavelengths. The difference between the fluorescence measured in the presence and absence of […] lactacystin was used to calculate proteasome activity.
Mouse grip strength was measured as described (Zhang et al., 2013). Briefly, 5 grip strengths were assessed at 1 min intervals using the Grip Strength Meter (Columbus Instrument Co., Columbus, Ohio). The average grip strength over 4 days was calculated.

[2] = system: Janus kinases (Jak1, Jak2) or Src family kinases (Hck, Lyn or Srms); conditions: 10 μM concentration; cited from earlier work
[3] = tumor bearing mice, EDL and soleus

In the case of `COc1ccc(S(=O)(=O)Nc2cc(-c3c(O)ccc4ccccc34)c(O)c3ccccc23)cc1` [C188-9], the “Stat3 activation in muscle” value ([1]; 12.5 mg/kg for 14 days beginning at 5 days after tumor implantation) is reported as “suppressed”, the body weight ([1]; 14 days treatment, tumor in place for 19 days, vs. D5W) is reported as “significant increase” and the “increased proteasome activity in muscle” value ([1]; mice bearing C26 tumor) is reported as “suppressed”. The grip strength ([1]; tumor bearing mice) was “improved grip strength”, the sizes of myofibers ([1]; tumor bearing mice) was “improvement” and the muscle protein degradation [1, 3] was “decrease in protein degradation”. For the same compound, the muscle protein synthesis [1, 3] was “increase in protein synthesis”, the “weights of tibialis anterior, gastrocnemius, soleus and EDL muscles” value ([1]; vs. pair-fed, tumor bearing mice treated with D5W) was “significantly greater” and the “inhibition of upstream tyrosine kinases Jak1, Jak2, Hck, Lyn or Srms” value [2] was “did not inhibit”.
